Source: patent publication US20260102407A1, “TREATMENT METHODS” (priority 2020, published 2026)

Experiments:
[1] = tested on: VCAM-1; assay: Western blot, IL-1β-inducible VCAM-1 expression in HMEC-1; format: cell-based, human
Procedure: Western blot analysis with extracts of cells treated with IL-13. HMEC-1 (80-90% confluency) were arrested in serum-free MCDB131 medium (Invitrogen, MD) without any growth factor for 48 h. Cells were treated with 30 μM compound in serum-free medium for 4 h, and incubated with 20 ng/ml IL-1β (Sigma, cat. SRE3083) in serum-free medium with the same concentration of compound for up to 4 h, unless otherwise indicated. Total protein was harvested as previously described using RIPA buffer with protease inhibitors. Proteins were resolved on 4-20% (w/v) SDS-polyacrylamide gradient gels and transferred to Immobilon-P PVDF membranes. […] Chemiluminescence was detected using the Western Lightning Chemiluminescence system and ImageQuant™ LAS 4000 biomolecular imager. Band intensity in images generated with the LAS 4000 using the same settings were quantified by NIH ImageJ.

[2] = GLP ocular pharmacokinetics study, single intravitreal injection; format: in vivo; settings: rabbit, eye, other: intravitreal injection; rabbits; single intravitreal injection 10 μg/50 μl; read-out: ocular half-life (t1/2) (converted)
[3] = tested on: Balb/c mice; assay: Collagen antibody-induced arthritis (footpad thickness, H&E, micro-CT, TRAP); format: in vivo, mouse; settings: CAIA mice
Procedure: Collagen antibody-induced arthritis. Arthritis was induced in female Balb/c mice (6-8 week-old) as previously described with a commercially obtained cocktail of 5 monoclonal antibodies to type II collagen at 2 mg/mouse (Chondrex, Inc. Redmond, WA) followed by LPS (50 μg/mouse) with or without BT2 (3 or 30 mg/kg mouse) in DMSO vehicle was administered i.p. on Day 3. Hind footpad thickness was measured on Day 9 using digital calipers. Mice were sacrificed on Day 14 and microCT scanning of hind limbs was performed.
Micro-CT scanning and analysis. Formalin-ethanol fixed hind limbs were micro-CT scanned prior to histology processing using a Siemens Inveon micro-CT scanner (Victoria, Australia). Data was acquired with the Inveon Acquisition Workplace at 16.84 μm pixel size, 360 projections, 4100 ms integration time, 80 keV photon energy and 140 μA current. 3D models were visualized and snap shots of the limbs acquired with the Inveon Research Workplace software. Data was quantified by binary score where 0=no bone destruction and 1=destruction was given to each individual limb.
Tartrate-resistant acid phosphatase (TRAP) staining. Osteoclasts were stained using TRAP kit (Cosmo Bio, Japan, cat. PMC-AK04F-COS). Sections were heated at 65° C. for 1 h prior dewaxing. Tissue sections were deparaffinised with 100% xylene and rehydrated with 100, 70 and 30% ethanol and rinsed with distilled water for 5 min. Sections were covered with TRAP staining solution containing 3 mg tartaric acid per 50 ml tartaric acid buffer. The sections were incubated at 37° C. for 1 h, then rinsed in distilled water 3 times to halt the reaction. Sections were counterstained with hematoxylin for 5s then washed in running water until clear then dried. Sections were dehydrated with xylene and air-dried then mounted with aqueous permanent mounting medium. Within the synovium on the medial aspect of each animal joint, 6 random areas photographed under 20× objective were selected in the blinded fashion. Numbers of osteoclasts were counted using NIH Image J. Alternatively TRAP staining was quantitated using IOD (Image-Pro Plus).

In the case of `CCOC(=O)Nc1ccc2c(c1)C(=O)N(CC)c1ccccc1O2` [BT2, (10-ethyl-11-oxo-10,11-dihydro-dibenzo[b,f][1,4]oxazepin-2-yl)-carbamic acid ethyl ester], the “IL-1β-inducible VCAM-1 expression (Western blot)” value ([1]; 30 μM, 20 ng/ml IL-1β up to 4 h) is reported as “inhibited”, the “inhibition of IL-1β-inducible VCAM-1, potency relative to PD98059” value ([1]; dose escalation 1-30 μM) is reported as “more potently than PD98059” and the half-life [2] is reported as 79.2 h. The “TRAP staining in the joints” value ([3]; Day 14) was “reduced TRAP staining”, the “bone destruction (3D micro-CT of hind limbs)” value ([3]; Day 14) was “inhibits bone destruction” and the “inflammation (H&E staining)” value ([3]; Day 14) was “reduced by BT2”. The hind footpad thickness ([3]; single administration 30 mg/kg i.p. Day 3, Day 9) was “inhibited”.
